Results: patent US8435978B2, “Substituted sulfonamide compounds” (Gruenenthal GmbH, priority 2006, dated 2013)

Tests used:
B1R receptor of the rat = target: T1, B1R receptor of the rat (Rattus norvegicus, UniProt P97583); test: Functional study on the bradykinin receptor 1 (B1R), FLIPR Ca2+ assay, rB1R cells; assay type: cell-based; conditions: CHO-K1, test substance 10 μM, agonist Des-Arg9-bradykinin 100 nM, % inhibition compared with the maximum achievable inhibition, read-out: B1R Antagonism, rat [10 μM] % Inhibition
T1 construct: host or cells: CHO K1 cells (Chinese hamster ovary), stably transfected
T1 sequence (P97583 1-337): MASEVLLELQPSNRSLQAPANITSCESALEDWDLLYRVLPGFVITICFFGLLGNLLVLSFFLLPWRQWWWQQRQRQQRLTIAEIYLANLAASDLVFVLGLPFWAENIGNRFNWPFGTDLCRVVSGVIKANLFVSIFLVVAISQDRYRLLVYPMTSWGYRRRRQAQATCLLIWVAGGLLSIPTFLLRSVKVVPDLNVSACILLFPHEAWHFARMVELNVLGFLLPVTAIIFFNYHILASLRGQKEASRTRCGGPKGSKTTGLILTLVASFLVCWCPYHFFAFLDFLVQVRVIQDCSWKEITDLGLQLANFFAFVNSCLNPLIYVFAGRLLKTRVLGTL
How it was run: (§1)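 CHO K1 cells stably expressing human or rat B1R, Fluo-4-loaded; test compound 10 μM added first (activation % vs agonist), then after 10 min 0.5 nM Lys-Des-Arg9-bradykinin (human) or 100 nM Des-Arg9-bradykinin (rat). Ca2+ peak fluorescence by FLIPR; % inhibition relative to maximum achievable inhibition.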

human B1R receptor = target: T2, human B1R receptor (Homo sapiens, UniProt P46663); test: Functional study on the bradykinin receptor 1 (B1R), FLIPR Ca2+ assay, hB1R cells; assay type: cell-based; conditions: CHO-K1, test substance 10 μM, agonist Lys-Des-Arg9-bradykinin 0.5 nM, % inhibition compared with the maximum achievable inhibition, read-out: B1R Antagonism, human [10 μM] % Inhibition
T2 construct: host or cells: CHO K1 cells (Chinese hamster ovary), stably transfected
T2 sequence (P46663 1-353): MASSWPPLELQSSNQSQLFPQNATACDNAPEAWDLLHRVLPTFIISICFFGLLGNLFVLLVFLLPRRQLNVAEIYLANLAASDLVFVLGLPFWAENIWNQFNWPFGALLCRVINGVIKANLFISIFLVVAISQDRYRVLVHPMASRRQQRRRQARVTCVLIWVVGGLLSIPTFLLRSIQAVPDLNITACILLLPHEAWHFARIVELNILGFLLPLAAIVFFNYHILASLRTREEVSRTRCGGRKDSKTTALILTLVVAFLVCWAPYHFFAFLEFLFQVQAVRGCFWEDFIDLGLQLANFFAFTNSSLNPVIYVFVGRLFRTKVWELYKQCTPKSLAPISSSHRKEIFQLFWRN
How it was run: as §1

Row | inhibition at 10 µM (B1R receptor of the rat) [%] | inhibition at 10 µM (human B1R receptor) [%] | SMILES
1 | 101 | 104 | O=C(COCC1CCCN1S(=O)(=O)c1c(Cl)cc(Cl)cc1Cl)NCC1CCCN(Cc2ccccc2)C1 (centres unmarked) [Example 327, N-((1-benzylpiperidin-3-yl)methyl)-2-((1-(2,4,6-trichlorophenylsulfonyl)pyrrolidin-2-yl)methoxy)acetamide]
2 | 102 | 104 | COc1ccc(N2CCN(C(=O)COCC3CCCN3S(=O)(=O)c3c(Cl)cc(Cl)cc3Cl)CC2)cc1 (centres unmarked) [Example 328, 1-(4-(4-methoxyphenyl)piperazin-1-yl)-2-((1-(2,4,6-trichlorophenylsulfonyl)pyrrolidin-2-yl)methoxy)ethanone]
3 | 98.2 | 105 | O=C(COCC1CCCN1S(=O)(=O)c1c(Cl)cc(Cl)cc1Cl)N1CCN(CCc2ccccc2)CC1 (centres unmarked) [Example 329, 1-(4-phenethylpiperazin-1-yl)-2-((1-(2,4,6-trichlorophenylsulfonyl)pyrrolidin-2-yl)methoxy)ethanone]
4 | 100 | 104 | CN1CCN(C2CCN(C(=O)COCC3CCCN3S(=O)(=O)c3c(Cl)cc(Cl)cc3Cl)CC2)CC1 (centres unmarked) [Example 330, 1-(4-(4-methylpiperazin-1-yl)piperidin-1-yl)-2-((1-(2,4,6-trichlorophenylsulfonyl)pyrrolidin-2-yl)methoxy)ethanone]
5 | 101 | 106 | O=C(COCC1CCCN1S(=O)(=O)c1c(Cl)cc(Cl)cc1Cl)N1CCC(CCN2CCCCC2)CC1 (centres unmarked) [Example 331, 1-(4-(2-(piperidin-1-yl)ethyl)piperidin-1-yl)-2-((1-(2,4,6-trichlorophenylsulfonyl)pyrrolidin-2-yl)methoxy)ethanone]
6 | 101 | 105 | Cc1ccc(C)n1CCN1CCN(C(=O)COCC2CCCN2S(=O)(=O)c2c(Cl)cc(Cl)cc2Cl)CC1 (centres unmarked) [Example 332, 1-(4-(2-(2,5-dimethyl-1H-pyrrol-1-yl)ethyl)piperazin-1-yl)-2-((1-(2,4,6-trichlorophenylsulfonyl)pyrrolidin-2-yl)methoxy)ethanone]
7 | 101 | 107 | CC(C)N(CCN1CCN(C(=O)COCC2CCCN2S(=O)(=O)c2c(Cl)cc(Cl)cc2Cl)CC1)C(C)C (centres unmarked) [Example 333, 1-(4-(2-(diisopropylamino)ethyl)piperazin-1-yl)-2-((1-(2,4,6-trichlorophenylsulfonyl)pyrrolidin-2-yl)methoxy)ethanone]
8 | 101 | 107 | O=C(COCC1CCCN1S(=O)(=O)c1c(Cl)cc(Cl)cc1Cl)N(C1CC1)C1CCN(Cc2ccccc2)CC1 (centres unmarked) [Example 334, N-(1-benzylpiperidin-4-yl)-N-cyclopropyl-2-((1-(2,4,6-trichlorophenylsulfonyl)pyrrolidin-2-yl)methoxy)acetamide]
9 | 99.8 | 106 | O=C(COCC1CCCN1S(=O)(=O)c1c(Cl)cc(Cl)cc1Cl)N1CCN(c2ccncc2)CC1 (centres unmarked) [Example 335, 1-(4-(pyridin-4-yl)piperazin-1-yl)-2-((1-(2,4,6-trichlorophenylsulfonyl)pyrrolidin-2-yl)methoxy)ethanone]

The next lines start with the compound.

Row | SMILES | inhibition at 10 µM (B1R receptor of the rat) [%] | inhibition at 10 µM (human B1R receptor) [%]
10 | O=C(COCC1CCCCN1S(=O)(=O)c1c(Cl)cccc1Cl)NCC1CCCN(Cc2ccccc2)C1 (centres unmarked) [Example 314, N-((1-benzylpiperidin-3-yl)methyl)-2-((1-(2,6-dichlorophenylsulfonyl)piperidin-2-yl)methoxy)acetamide] | 104 | 105
11 | CN(C(=O)COCC1CCCCN1S(=O)(=O)c1c(Cl)cccc1Cl)[C@H]1CCN(Cc2ccccc2)C1 (stereo partly drawn) [Example 315, N—((S)-1-benzylpyrrolidin-3-yl)-2-((1-(2,6-dichlorophenylsulfonyl)piperidin-2-yl)methoxy)-N-methylacetamide] | 101 | 105
12 | O=C(COCC1CCCCN1S(=O)(=O)c1c(Cl)cccc1Cl)N1CCN(c2ccccn2)CC1 (centres unmarked) [Example 316, 2-((1-(2,6-dichlorophenylsulfonyl)piperidin-2-yl)methoxy)-1-(4-(pyridin-2-yl)piperazin-1-yl)ethanone] | 98.2 | 82.7
13 | COc1cccc(N2CCN(C(=O)COCC3CCCCN3S(=O)(=O)c3c(Cl)cccc3Cl)CC2)c1 (centres unmarked) [Example 317, 2-((1-(2,6-dichlorophenylsulfonyl)piperidin-2-yl)methoxy)-1-(4-(3-methoxyphenyl)piperazin-1-yl)ethanone] | 100 | 92.2
14 | O=C(COCC1CCCCN1S(=O)(=O)c1c(Cl)cccc1Cl)N1CCN(c2ccc(F)cc2)CC1 (centres unmarked) [Example 318, 2-((1-(2,6-dichlorophenylsulfonyl)piperidin-2-yl)methoxy)-1-(4-(4-fluorophenyl)piperazin-1-yl)ethanone] | 102 | 102
15 | COc1ccc(N2CCN(C(=O)COCC3CCCCN3S(=O)(=O)c3c(Cl)cccc3Cl)CC2)cc1 (centres unmarked) [Example 319, 2-((1-(2,6-dichlorophenylsulfonyl)piperidin-2-yl)methoxy)-1-(4-(4-methoxyphenyl)piperazin-1-yl)ethanone] | 100 | 104
16 | O=C(COCC1CCCCN1S(=O)(=O)c1c(Cl)cccc1Cl)N1CCN(CCc2ccccc2)CC1 (centres unmarked) [Example 320, 2-((1-(2,6-dichlorophenylsulfonyl)piperidin-2-yl)methoxy)-1-(4-phenethylpiperazin-1-yl)ethanone] | 102 | 106
17 | Cc1ccc(Cl)cc1N1CCN(C(=O)COCC2CCCCN2S(=O)(=O)c2c(Cl)cccc2Cl)CC1 (centres unmarked) [Example 321, 1-(4-(5-chloro-2-methylphenyl)piperazin-1-yl)-2-((1-(2,6-dichlorophenylsulfonyl)piperidin-2-yl)methoxy)ethanone] | 100 | 41.2
18 | O=C(COCC1CCCN1S(=O)(=O)c1c(Cl)cccc1Cl)NCc1ccc(CN2CCCC2)cc1 (centres unmarked) [Example 322, 2-((1-(2,6-dichlorophenylsulfonyl)pyrrolidin-2-yl)methoxy)-N-(4-(pyrrolidin-1-ylmethyl)benzyl)acetamide] | 98.7 | 102
19 | O=C(COCC1CCCN1S(=O)(=O)c1c(Cl)cccc1Cl)NCC1CCCN(Cc2ccccc2)C1 (centres unmarked) [Example 323, N-((1-benzylpiperidin-3-yl)methyl)-2-((1-(2,6-dichlorophenylsulfonyl)pyrrolidin-2-yl)methoxy)acetamide] | 88.1 | 105
20 | COc1cccc(N2CCN(C(=O)COCC3CCCN3S(=O)(=O)c3c(Cl)cccc3Cl)CC2)c1 (centres unmarked) [Example 324, 2-((1-(2,6-dichlorophenylsulfonyl)pyrrolidin-2-yl)methoxy)-1-(4-(3-methoxyphenyl)piperazin-1-yl)ethanone] | 98.4 | 84
21 | COc1ccc(N2CCN(C(=O)COCC3CCCN3S(=O)(=O)c3c(Cl)cccc3Cl)CC2)cc1 (centres unmarked) [Example 325, 2-((1-(2,6-dichlorophenylsulfonyl)pyrrolidin-2-yl)methoxy)-1-(4-(4-methoxyphenyl)piperazin-1-yl)ethanone] | 101 | 102
22 | O=C(COCC1CCCN1S(=O)(=O)c1c(Cl)cccc1Cl)N1CCN(CCc2ccccc2)CC1 (centres unmarked) [Example 326, 2-((1-(2,6-dichlorophenylsulfonyl)pyrrolidin-2-yl)methoxy)-1-(4-phenethylpiperazin-1-yl)ethanone] | 101 | 104
